Experiments:
[1] = test system: nuclear β-catenin in SW480 cells; experiment: β-catenin immunofluorescence and western blot localization in SW480 cells; assay type: cell-based, human; conditions: 25 μM, 24 hours
Protocol: FIG. 4. COMPOUND 1 decreases nuclear β-catenin • A. β-catenin immunofluorescence microscopy. Log phase SW480 (left) and HCT116 (right) cells were fixed and stained with either anti-β-catenin red (upper panel, A) or anti-CBP (upper panel, B) green. The center panel represents the superimposed β-catenin and CBP in SW480 (left) and HCT116 (right) cells. […] 25 μg of total protein from the cell extracts of SW480 cells with or without 24 hr treatment of COMPOUND1 was used for detection of cytosolic and nuclear β-catenin.
Immunofluorescence was used to examine the localization of CBP and β-catenin in SW480 and HCT116 cells treated with COMPOUND 1 (25 μM) or control (0.5% DMSO). Cells at log phase were seeded and after 24 hours, the cells were treated with COMPOUND 1 or control. 24 hours post treatment, cells were fixed. The coverslips were incubated with antibodies raised against CBP (A-22) (Santa Cruz Biotechnology) and β-catenin (Transduction Laboratories), respectively. The slides were examined using a Nikon PCM 2000 Laser Scanning Confocal Microscope after the secondary antibodies conjugated to either FITC or TRITC (Jackson ImmunoResearch, Westgrove, Pa.) were applied.
The subcellular distribution of β-catenin and CBP was examined in order to determine whether the localization of either was affected by COMPOUND 1. […]

c-jun = experiment: Real Time RT-PCR in SW480 cells, c-jun; assay type: cell-based, human; conditions: 25 μM; for ΔCT c-jun: relative to β-actin
Protocol: The RNeasy Midi Kit (Qiagen) was used for RNA extraction and Real Time RT-PCR was performed according to the protocol provided with the SYBR Green PCR Master Mix Kit (Perkin Elmer Biosystems, Shelton, Conn.). The primers used for cyclin D1, axin2, hnkd, c-myc, c-jun, and fra-1 amplifications were: cyclin D1 forward primer:5′-[…]-CCTGCTG-3′ (SEQ ID NO: 32) reverse primer: 5′-[…]-3′ (SEQ ID NO: 33) leading to a product size of approximately 300 bp; axin2 forward primer: 5′-[…] GGAAA-CT-3′ (SEQ ID NO: 34) and reverse primer: 5′-[…]-GAGA-3′ (SEQ ID NO: 35); hnkd forward primer: 5′-[…] TTGCGT-3′ (SEQ ID NO: 36) and the reverse primer: 5′-[…] ACGT-3′ (SEQ ID NO: 37); c-myc forward primer: 5′-GAA-[…] CTGC-3′ (SEQ ID NO: 38) and reverse primer: 5′-[…]-G-3′ (SEQ ID NO: 39); c-jun forward primer: 5′-[…]-3′ (SEQ ID NO: 40) and reverse primer: 5′-[…]-3′ (SEQ ID NO: 41); fra-1 forward primer: 5′-ACC-[…]-[…]-3′ (SEQ ID NO: 42) and reverse primer: 5′-[…]-TT-3′ (SEQ ID NO: 43). β-actin was used for normalization. […]
1 μg of mRNA, for each time point, was subjected to Real Time RT-PCR. Expression level of endogenous cyclin D1, c-myc, fibronectin, hnkd, axin2, c-jun, and BMP-4 were measured relative to β-actin. Quantitation of The ΔCycle of Threshold (CT) values was determined by subtracting the average values of each set by the corresponding average values obtained for β-actin. […]
The cyclin D1 gene is inappropriately expressed in many different tumor types, and is known to be a direct target of the Wnt/β-catenin pathway (Shtutman et al., “The cyclin D1 gene is a target of the beta-catenin/LEF-1 pathway,” Proc. Natl. Acad. Sci. USA 96:5522-27 (1999); Tetsu et al., “Beta-catenin regulates expression of cyclin D1 in colon carcinoma cells,” Nature 398:422-26 (1999)). […] Expression level of endogenous cyclin D1, c-myc, fibronectin, hnkd, axin2, c-jun, and BMP-4 were measured relative to β-actin. Quantitation of The ΔCycle of Threshold (CT) values was determined by subtracting the average values of each set by the corresponding average values obtained for β-actin. […]

O=C1C(Cc2ccc(O)cc2)N2C(=O)CCN(C(=O)NCc3ccccc3)C2CN1Cc1cccc2ccccc12 (stereo not shown) [COMPOUND 1]
Subcellular distribution of β-catenin [1]: caused translocation of β-catenin to the cytoplasm
mRNA c-jun (direction) (c-jun): ↑
ΔCT c-jun (c-jun; 4 hours): 0
ΔCT c-jun (c-jun; 24 hours): −2.9

Source: US7531320B2, “Modulation of β-catenin/TCF-activated transcription” (priority 2003, dated 2009)
